Laboratory results taken from PubChem BioAssay (NCI).
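Following 48 hours of exposure in 96-well plates, responses at five concentrations were used to interpolate endpoints linearly. GI50 = concentration required for 50% inhibition of growth. TGI marks complete inhibition of growth.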

Columns and labels:
Test in all cases: growth of human tumour cells (NCI), 48 h
[1] = system: SK-OV-3 ovarian
[2] = system: A498 renal
[3] = system: MOLT-4 leukemia
[4] = system: SK-MEL-2 melanoma
[5] = system: NCI-H23 lung
[6] = system: HCT-15 colon
[7] = system: ACHN renal
[8] = system: SK-MEL-28 melanoma
[9] = system: U251 CNS
[10] = system: CAKI-1 renal
[11] = system: RPMI-8226 leukemia
[12] = system: HOP-62 NSCLC
[13] = system: HCT-116 colon
[14] = system: SF-295 CNS
[15] = system: OVCAR-3 ovarian
[16] = system: RXF 393 renal
[17] = system: SNB-19 CNS
[18] = system: SR leukemia
[19] = system: MALME-3M melanoma
[20] = system: PC-3 prostate
[21] = system: HCC-2998 colon
[22] = system: MCF7 breast
[23] = system: MDA-MB-231 breast
[24] = system: SK-MEL-5 melanoma
[25] = system: KM12 colon
[26] = system: BT-549 breast
[27] = system: CCRF-CEM leukemia
[28] = system: HS 578T breast
[29] = system: SF-268 CNS
[30] = system: OVCAR-4 ovarian
[31] = system: OVCAR-8 ovarian
[32] = system: 786-0 renal
[33] = system: LOX IMVI melanoma
[34] = system: IGROV1 ovarian
[35] = system: SN12C renal
[36] = system: HL-60(TB) leukemia
[37] = system: HOP-92 NSCLC
[38] = system: M14 melanoma
[39] = system: K-562 leukemia
[40] = system: A549 NSCLC
[41] = system: TK-10 renal
[42] = system: HT29 colon
[43] = system: DU-145 prostate
[44] = system: UACC-257 melanoma
[45] = system: COLO 205 colon
[46] = system: MDA-MB-435
[47] = system: SF-539 CNS
[48] = system: T-47D breast
[49] = system: SNB-75 CNS
[50] = system: SW-620 colon
[51] = system: UO-31 renal
[52] = system: UACC-62 melanoma
[53] = system: NCI/ADR-RES ovarian
[54] = system: NCI-H522 lung
[55] = system: NCI-H226 lung
[56] = system: NCI-H460 lung
[57] = system: OVCAR-5 ovarian

COc1cccc(C2=C(c3cn(C)c4ccc(Cl)cc34)C(=O)NC2=O)c1
GI50 [1]: 7.29 µM | TGI [1]: > 22 µM | GI50 [2]: 4.03 µM | TGI [2]: 12.5 µM | GI50 [3]: 5.14 µM | TGI [3]: > 18.8 µM | GI50 [4]: 7.24 µM | TGI [4]: > 18 µM | GI50 [5]: 7.15 µM | TGI [5]: > 19.1 µM | GI50 [6]: 6.4 µM | TGI [6]: > 25 µM | GI50 [7]: 6.65 µM | TGI [7]: > 19.6 µM | GI50 [8]: 7.87 µM | TGI [8]: > 20.5 µM | GI50 [9]: 5.94 µM | TGI [9]: > 16.8 µM | GI50 [10]: 4.87 µM | TGI [10]: 16.8 µM | GI50 [11]: 5.9 µM | TGI [11]: > 20.4 µM | GI50 [12]: 7.22 µM | TGI [12]: 21.4 µM | GI50 [13]: 3.8 µM | TGI [13]: > 13.7 µM | GI50 [14]: 5.28 µM | TGI [14]: > 15.1 µM | GI50 [15]: 7.47 µM | TGI [15]: > 17.2 µM | GI50 [16]: 3.66 µM | TGI [16]: 8.33 µM | GI50 [17]: 13.4 µM | TGI [17]: > 25 µM | GI50 [18]: 5.77 µM | TGI [18]: > 18.6 µM | GI50 [19]: 13.9 µM | TGI [19]: > 20 µM | GI50 [20]: 6.16 µM | TGI [20]: > 19.6 µM | GI50 [21]: 9.02 µM | TGI [21]: > 23 µM | GI50 [22]: 2.85 µM | TGI [22]: > 25 µM | GI50 [23]: 8.3 µM | TGI [23]: > 20.6 µM | GI50 [24]: 3.63 µM | TGI [24]: 8.35 µM | GI50 [25]: 4.95 µM | TGI [25]: 11.4 µM | GI50 [26]: 7.01 µM | TGI [26]: > 19 µM | GI50 [27]: 4.39 µM | TGI [27]: 15.7 µM | GI50 [28]: 6.76 µM | TGI [28]: > 25 µM | GI50 [29]: 11.5 µM | TGI [29]: > 25 µM | GI50 [30]: 6.96 µM | TGI [30]: > 25 µM | GI50 [31]: 6.61 µM | TGI [31]: > 20.3 µM | GI50 [32]: 6.5 µM | TGI [32]: > 18.9 µM | GI50 [33]: 4.92 µM | TGI [33]: > 16.1 µM | GI50 [34]: 7.62 µM | TGI [34]: > 17.5 µM | GI50 [35]: 4.96 µM | TGI [35]: 14.2 µM | GI50 [36]: 6.84 µM | TGI [36]: 14.6 µM | GI50 [37]: > 25 µM | TGI [37]: > 25 µM | GI50 [38]: 10.3 µM | TGI [38]: > 25 µM | GI50 [39]: 6.54 µM | TGI [39]: > 19.8 µM | GI50 [40]: 6.84 µM | TGI [40]: > 25 µM | GI50 [41]: 10.4 µM | TGI [41]: > 23.8 µM | GI50 [42]: 4.14 µM | TGI [42]: > 24.1 µM | GI50 [43]: 10.9 µM | TGI [43]: > 22.1 µM | GI50 [44]: 9.86 µM | TGI [44]: > 21.5 µM | GI50 [45]: 3.92 µM | TGI [45]: 8.57 µM | GI50 [46]: 6.48 µM | TGI [46]: > 16.4 µM | GI50 [47]: 6.06 µM | TGI [47]: > 15.9 µM | GI50 [48]: 4.19 µM | TGI [48]: 17.4 µM | GI50 [49]: 3.1 µM | TGI [49]: > 25 µM | GI50 [50]: 8.79 µM | TGI [50]: > 25 µM | GI50 [51]: 5.07 µM | TGI [51]: > 17.4 µM | GI50 [52]: 5.67 µM | TGI [52]: 12.8 µM | GI50 [53]: 6.13 µM | TGI [53]: 19.8 µM | GI50 [54]: 5.48 µM | TGI [54]: > 17.9 µM | GI50 [55]: 5.17 µM | TGI [55]: 19.1 µM | GI50 [56]: 7.57 µM | TGI [56]: > 19.1 µM | GI50 [57]: 15.3 µM | TGI [57]: > 25 µM
